ChEMBL document CHEMBL1201862, “PubChem BioAssay data set” (2004)
Activity calls are given as the source filed them. Rule as the data show it: actives have a measured IC50 and inactives only a lower limit.

Molecular target: Envelope glycoprotein gp160 (Human immunodeficiency virus 1, UniProt Q6QLK5)
Test: inhibitors of HIV fusion peptide binding, primary screen, biochemical, uHTS, fluorescence dequenching (AID 1986)

Envelope glycoprotein gp160, sequence (Q6QLK5 whole entry, the tested form may be a part): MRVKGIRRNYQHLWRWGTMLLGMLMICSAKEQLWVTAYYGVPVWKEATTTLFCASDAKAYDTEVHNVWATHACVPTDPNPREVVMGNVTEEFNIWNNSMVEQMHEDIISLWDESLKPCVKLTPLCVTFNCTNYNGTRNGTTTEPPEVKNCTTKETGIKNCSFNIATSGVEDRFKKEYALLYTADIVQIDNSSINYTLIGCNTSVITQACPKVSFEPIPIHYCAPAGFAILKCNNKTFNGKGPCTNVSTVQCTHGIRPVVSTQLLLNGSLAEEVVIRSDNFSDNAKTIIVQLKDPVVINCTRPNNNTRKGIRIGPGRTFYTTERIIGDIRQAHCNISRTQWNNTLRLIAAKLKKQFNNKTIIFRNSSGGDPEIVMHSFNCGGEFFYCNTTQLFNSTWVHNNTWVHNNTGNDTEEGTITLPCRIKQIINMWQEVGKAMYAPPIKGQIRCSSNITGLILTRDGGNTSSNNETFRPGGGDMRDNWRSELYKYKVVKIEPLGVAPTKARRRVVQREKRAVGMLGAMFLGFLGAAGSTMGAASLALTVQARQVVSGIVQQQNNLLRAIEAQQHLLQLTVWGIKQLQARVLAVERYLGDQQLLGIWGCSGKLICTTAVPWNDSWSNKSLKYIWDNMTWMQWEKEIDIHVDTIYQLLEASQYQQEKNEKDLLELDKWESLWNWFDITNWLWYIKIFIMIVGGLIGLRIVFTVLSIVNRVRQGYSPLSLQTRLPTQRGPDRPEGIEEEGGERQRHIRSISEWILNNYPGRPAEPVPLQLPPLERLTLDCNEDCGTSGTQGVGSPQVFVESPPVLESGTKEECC

Question: With O=C(OCC1OC(n2ncc(=O)[nH]c2=O)C(OC(=O)c2ccccc2)C1OC(=O)c1ccccc1)c1ccccc1 (stereo unspecified) as the compound, how does the IC50 read?
Answer: 23.8 µM (active)
